# Where no end group is shown, it is not given here. [ ]: non-standard residue; d: D form. Aib = CC(C)(N)C(=O)O
# How the values were obtained:
# SK-OV-3 cells = assay: SK-OV-3 growth inhibition, 72 hr, MTT assay; assay type: cell-based, human; conditions: for SK-OV-3 growth inhibition, comparison of anchor lipids: conjugates tested as C-m-HDLs prepared by solvent lyophilization, FIGS. 12A and 12B; for SK-OV-3 growth inhibition, comparison of peptides: tested as C-m-HDLs loaded with conjugate 20 made with the named peptide, FIG. 13
# Description: In this Example, the mole portions of components in the C-m-HDLs prepared by solvent lyophilization were POPC: egg SM: peptide: conjugate 5.6:2.4:2:1. 20 mM stock solutions of POPC and of egg SM were prepared in tert-butyl alcohol: water (8:2 v/v). Peptide SEQ ID NO: 25 (acetate counter ion) was dissolved in tert-butyl alcohol/water/acetic acid (80:20:7 v/v) to obtain a 10 mM peptide solution. Conjugates 20 and 30 were separately dissolved in tert-butyl alcohol: water (95:5) to a final concentration of 10 mM.
# For C-m-HDL preparation, 2.8 mL of 20 mM POPC, 1.2 mL of 20 mM egg SM, 2 mL of 10 mM peptide, 1 mL of 10 mM conjugate, and 0.3 mL acetic acid were combined in a 20 mL glass vial. The combined solution was frozen at ≥−70° C. for ≥1 hr. The frozen vial was placed in the chamber of a lyophilizer set at a shelf temperature of −20° C. A vacuum between 100 to 150 mTorr was applied for >20 hr. The shelf temperature was raised to −10° C. and the vacuum was continued for >15 hr. The shelf temperature was then raised to 20° C. and the vacuum continued for 24 hr. The dried cake was dissolved in PBS to obtain C-m-HDLs. The uniformity of the C-m-HDLs was evaluated by SEC (Acclaim™ SEC-1000, 300 mm×4.6 mm column, 0.3 mL/min PBS mobile phase, 210 nm and 280 nm UV detection) and by dynamic light scattering. The phospholipid content was established with a commercially available, enzyme-based, colorimetric assay kit. Peptide and conjugate content were established by HPLC.
# Two C-m-HDLs were prepared as above, containing either Conjugate 20 or Conjugate 30 were then tested for their growth inhibition activity against SK-OV-3 cells (ATCC). SK-OV-3 cells were grown in McCoy's-5A media supplemented with 10% fetal bovine serum and maintained in a 37° C. incubator under a 5% CO2 atmosphere. To assess growth inhibition, the growth medium of cells grown in 96-well plates was supplemented with various concentrations of C-m-HDL (cmpd 20), C-m-HDL (compd 30) or paclitaxel from a DMSO stock solution. The 96-well plates were incubated for 72 hr. The relative amount of live cells in each of the wells after 72 hr was determined with the MTT assay. The concentrations of test articles causing 50% growth inhibition (GIso) were obtained by performing a non-linear fit of the MTT results to a 4-parmeter logistic function. The results are plotted in FIG. 11.
# Sprague-Dawley rats = assay: Adrenal gland functionality in rats after dosing (ACTH challenge, plasma corticosterone); assay type: in vivo; conditions: 4 mg/kg on Days 1, 4 and 7; ACTH challenge Day 11; paclitaxel intraperitoneal, C-m-HDL intravenous; FIG. 10
# Description: A paclitaxel stock solution was prepared by dissolving paclitaxel in 1:1 (v/v) Cremophor EL/ethanol (95%) to a final paclitaxel concentration of […] (C-E paclitaxel solution). Next, a paclitaxel solution suitable for dosing was prepared by combining one volume of the C-E paclitaxel solution with 3 volumes of 0.9 weight % NaCl. This solution is designated as “Control”.
# C-m-HDL (cmpd 20) was prepared as per Example 12.
# The in vivo study was conducted in rats in accordance with the current guidelines for animal welfare (Guide for the Care and Use of Laboratory Animals, 8th Ed., 2011). The procedures used in the study were reviewed and approved by the Institutional Animal Care and Use Committee.
# Eighteen (18) female Sprague-Dawley rats were randomly assigned to 3 groups of 6 animals each. All animals were lightly anesthetized using isoflurane and dosed intraperitoneally on Days 1, 4, and 7 with paclitaxel at 4 mg/kg in a dose volume of 1.5 mL/kg, or intravenously with C-m-HDL (cmpd 20) at 4 mg/kg or vehicle (saline) via the tail vein using a dose volume of 1.5 mL/kg. Group 1 received saline, Group 2 received paclitaxel, and Group 3 received C-m-HDL (cmpd 20). On Day 11, rats in each group were lightly anesthetized using isoflurane within their home cage to minimize potential stress responses. […] Plasma corticosterone content was determined with a commercially available ELISA kit.
compound,measurement,setting,value
"CC(=O)O[C@H]1C(=O)[C@@]2(C)[C@H]([C@H](OC(=O)c3ccccc3)[C@]3(O)C[C@H](OC(=O)[C@H](OC(=O)Oc4cc(C)c5c(c4)CC[C@@](C)(CC/C=C(\C)CC/C=C(\C)CCC=C(C)C)O5)[C@@H](NC(=O)c4ccccc4)c4ccccc4)C(C)=C1C3(C)C)[C@]1(OC(C)=O)CO[C@@H]1C[C@@H]2O [Conjugate 20, paclitaxel-delta-tocotrienol conjugate]","SK-OV-3 growth inhibition, comparison of anchor lipids",SK-OV-3 cells,equivalent results
same,"SK-OV-3 growth inhibition, comparison of anchor lipids",SK-OV-3 cells; listed as paclitaxel-delta-tocotrienol,essentially equivalent
CC(=O)O[C@H]1C(=O)[C@@]2(C)[C@H]([C@H](OC(=O)c3ccccc3)[C@]3(O)C[C@H](OC(=O)[C@H](O)[C@@H](NC(=O)c4ccccc4)c4ccccc4)C(C)=C1C3(C)C)[C@]1(OC(C)=O)CO[C@@H]1C[C@@H]2O [paclitaxel],adrenal function / adrenal toxicity,Sprague-Dawley rats,lack of adrenal toxicity
"DVFQKLXELFNQLLEKWKQV (DVFQKL[Aib]ELFNQLLEKWKQV) [SEQ ID NO: 25, amphiphilic, alpha-helical peptide used to prepare C-m-HDLs]","SK-OV-3 growth inhibition, comparison of peptides",SK-OV-3 cells,substantially the same
"DVFQKLXELFNQLXEKWKQV (DVFQKL[Aib]ELFNQL[Aib]EKWKQV) [SEQ ID NO: 35, amphiphilic, alpha-helical peptide used to prepare C-m-HDLs]","SK-OV-3 growth inhibition, comparison of peptides",SK-OV-3 cells,substantially the same

# Reference: patent US20250345454A1, “CHEMOTHERAPEUTIC PACLITAXEL BASED MICELLULAR NANOPARTICLES” (Peptinovo Biopharma Inc., priority 2024, published 2025)
